In patent EP0636626A1, “Pyrazolopyrimidine Derivatives” (LABORATOIRES GLAXO SA, priority 1993, dated 1995):
pIC50: −log10 of the molar value.

Each compound was assayed against T1, cGMP specific PDE (Phosphodiesterase type V) (Bos taurus, UniProt Q28156) (assay: cGMP specific PDE (PDE V) inhibition, "one step" assay). Settings: PDE V isolated from bovine aorta; concentration of inhibitor required for 50% inhibition of enzyme activity; read-out: IC₅₀.
T1 construct: The PDE V in enzyme is isolated from bovine aorta; from tissue; host or cells: bovine aorta
Assay type: biochemical
Experimental: The affinities of compounds of formula (I) for cGMP specific PDE (Phosphodiesterase type V) may be assessed by determination of their IC₅₀ values (the concentration of inhibitor required for 50% inhibition of enzyme activity). The PDE V in enzyme is isolated from bovine aorta, essentially by the method of Lugnier et al. in Biochem. Pharmacology 35, 1743 (1986) and assays are performed using a "one step" assay adapted from the method of Wells et al in Biochim. Biophys. Acta 384, 430 (1975).
Compounds of the invention were assayed according to the procedure described hereinabove.

pIC50 | Compound
8.00 to 9.00 | CCCOc1ccc(NC(=O)C(F)(F)F)cc1-c1nc2c(c(C)nn2C)c(=O)[nH]1 [Example 41, 1,3-Dimethyl-6-(2-propoxy-5-trifluoroacetamidophenyl)-1,5-dihydro-pyrazolo[3,4-d]pyrimidin-4-one]
8.00 to 9.00 | CCCOc1ccc(N)cc1-c1nc2c(c(C)nn2C)c(=O)[nH]1 [Example 7, 1,3-Dimethyl-6-(2-propoxy-5-aminophenyl)-1,5-dihydropyrazolo[3,4-d]pyrimidin-4-one]
8.00 to 9.00 | CCCOc1ccc(NC(=O)NCC)cc1-c1nc2c(c(C)nn2C)c(=O)[nH]1 [Example 30, 1,3-Dimethyl-6-(2-propoxy-5-ethylureidophenyl)-1,5-dihydro-pyrazolo[3,4-d]pyrimidin-4-one]
8.00 to 9.00 | CCCOc1ccc(-c2ccc(C)s2)cc1-c1nc2c(c(C)nn2C)c(=O)[nH]1 [Example 69, 1,3-Dimethyl-6-[2-propoxy-5-(5-methyl-2-thienyl)phenyl]-1,5-dihydropyrazolo[3,4-d]pyrimidin-4-one]
8.00 to 9.00 | CCCOc1ccc(-c2csc(C)n2)cc1-c1nc2c(c(C)nn2C)c(=O)[nH]1 [Example 51, 1,3-Dimethyl-6-[2-propoxy-5-(2-methyl-4-thiazolyl)phenyl]-1,5-dihydro-pyrazolo[3,4-d]pyrimidin-4-one]
8.00 to 9.00 | CCCOc1ccc(-c2csc(-c3cccnc3)n2)cc1-c1nc2c(c(C)nn2CC)c(=O)[nH]1 [Example 65, 1-Ethyl-3-methyl-6-[2-propoxy-5-(2-(3-pyridyl)-4-thiazolyl)phenyl]-1,5-dihydropyrazolo[3,4-d]pyrimidin-4-one]
8.00 to 9.00 | CCCOc1ccc(-c2csc(C)n2)cc1-c1nc2c(c(C)nn2CC)c(=O)[nH]1 [Example 63, 1-Ethyl-3-methyl-6-[2-propoxy-5-(2-methyl-4-thiazolyl)phenyl]-1,5-dihydropyrazolo[3,4-d]pyrimidin-4-one]
8.00 to 9.00 | CCCOc1ccc(NC(C)=O)cc1-c1nc2c(c(C)nn2C)c(=O)[nH]1 [Example 15, 1,3-Dimethyl-6-(2-propoxy-5-acetamidophenyl)-1,5-dihydropyrazolo[3,4-d]pyrimidin-4-one]
8.00 to 9.00 | CCCOc1ccc(NC(=O)c2cccs2)cc1-c1nc2c(c(C)nn2C)c(=O)[nH]1 [Example 19, 1,3-Dimethyl-6-[2-propoxy-5-((2-thienyl)carboxamido)phenyl]-1,5-dihydropyrazolo[3,4-d]pyrimidin-4-one]
8.00 to 9.00 | CCCOc1ccc(NC(=S)NCC)cc1-c1nc2c(c(C)nn2C)c(=O)[nH]1 [Example 31, 1,3-Dimethyl-6-(2-propoxy-5-ethylthioureidophenyl)-1,5-dihydro-pyrazolo[3,4-d]pyrimidin-4-one]
8.00 to 9.00 | CCCOc1ccc(-c2nc(C)cs2)cc1-c1nc2c(c(C)nn2CC)c(=O)[nH]1 [Example 37, 1-Ethyl-3-methyl-6-[2-propoxy-5-(4-methyl-2-thiazolyl)phenyl]-1,5-dihydro-pyrazolo[3,4-d] pyrimidin-4-one]
8.00 to 9.00 | CCCOc1ccc(NC(=O)c2ccc(F)cc2)cc1-c1nc2c(c(C)nn2C)c(=O)[nH]1 [Example 18, 1,3-Dimethyl-6-[2-propoxy-5-(4-fluorobenzamido)phenyl]-1,5-dihydropyrazolo[3,4-d]pyrimidin-4-one]
8.00 to 9.00 | CCCOc1ccc(NS(C)(=O)=O)cc1-c1nc2c(c(C)nn2C)c(=O)[nH]1 [Example 11, 1,3-Dimethyl-6-(2-propoxy-5-methanesulfonamidophenyl)-1,5-dihydropyrazolo[3,4-d]pyrimidin-4-one]
8.00 to 9.00 | CCCOc1ccc(NC(=O)OCC)cc1-c1nc2c(c(C)nn2C)c(=O)[nH]1 [Example 22, 1,3-Dimethyl-6-(2-propoxy-5-ethoxycarbonylaminophenyl)-1,5-dihydropyrazolo[3,4-d]pyrimidin-4-one]
8.00 to 9.00 | CCCOc1ccc(-c2n[nH]c(-c3ccccc3)n2)cc1-c1nc2c(c(C)nn2C)c(=O)[nH]1 [Example 67, 1,3-Dimethyl-6-[2-propoxy-5-(3-phenyl-1,2,4-triazol-5-yl)phenyl]-1,5-dihydropyrazolo[3,4-d] pyrimidin-4-one]
